According to patent publication US5091367A, “Analogs of gonadoliberin with improved solubility, methods for their preparation, agents containing them and their use” (Hoechst Aktiengesellschaft, priority 1986, dated 1992):
Values after ≈ are worked out from the molar mass of the structure shown.

Columns and labels:
rat super-ovulation = assay: biological activity in rat super-ovulation; assay type: in vivo
[1] = solubility in a neutral buffer used for nasal application; settings: well compatible neutral buffer as used for nasal application of protirelin
Serum testosterone = assay: serum testosterone after Gn-RH antagonist (Table 2); assay type: in vivo; settings: untreated control 3.63 ± 0.59
Excerpt: The Gn-RH antagonists according to the invention have an inhibitory effect on the formation of lutropin and follitropin and, as a result, also on the synthesis of testosterone and estrogen (see Table 2). They can be employed as high-dose Gn-RH […] in gonadotropin- and steroid-dependent diseases.

Solubility in neutral nasal buffer [1] [µg/mL] | Compound | ED20-50 Super-ovul. (rat super-ovulation) [ng/rat] | Serum testosterone (Serum testosterone) [ng/mL]
125000 (≈ 92900 µM) | CCNC(=O)[C@@H]1CCCN1C(=O)[C@H](CCCNC(=N)N)NC(=O)[C@H](CC(C)C)NC(=O)[C@@H](CO[C@@H]1O[C@H](CO)[C@@H](O)[C@H](O)[C@H]1O)NC(=O)[C@H](Cc1ccc(O)cc1)NC(=O)[C@H](CO)NC(=O)[C@H](Cc1c[nH]c2ccccc12)NC(=O)[C@H](Cc1c[nH]cn1)NC(=O)[C@@H]1CCC(=O)N1 [Pgl-His-Trp-Ser-Tyr-D-Ser(β-D-Glc)-Leu-Arg-Pro-NH-C2 H5] | 12 | 
3300 (≈ 2330 µM) | CCNC(=O)[C@@H]1CCCN1C(=O)[C@H](CCCNC(=N)N)NC(=O)[C@H](CO[C@H]1O[C@H](CO)[C@@H](O)[C@H](O)[C@@H]1O)NC(=O)[C@@H](Cc1c[nH]c2ccccc12)NC(=O)[C@H](Cc1ccc(O)cc1)NC(=O)[C@H](CO)NC(=O)[C@H](Cc1c[nH]c2ccccc12)NC(=O)[C@H](Cc1c[nH]cn1)NC(=O)[C@@H]1CCC(=O)N1 [Pgl-His-Trp-Ser-Tyr-D-Trp-Ser(α-D-Man)-Arg-Pro-NH-C2 H5] | > 24 | 
2500 (≈ 1760 µM) | CCNC(=O)[C@@H]1CCCN1C(=O)[C@H](CCCNC(=N)N)NC(=O)[C@H](CO[C@@H]1O[C@H](CO)[C@@H](O)[C@H](O)[C@H]1O)NC(=O)[C@@H](Cc1c[nH]c2ccccc12)NC(=O)[C@H](Cc1ccc(O)cc1)NC(=O)[C@H](CO)NC(=O)[C@H](Cc1c[nH]c2ccccc12)NC(=O)[C@H](Cc1c[nH]cn1)NC(=O)[C@@H]1CCC(=O)N1 [Pgl-His-Trp-Ser-Tyr-D-Trp-Ser(β-D-Glc)-Arg-Pro-NH-C2 H5] | 6 | 
2500 (≈ 1780 µM) | CCNC(=O)[C@@H]1CCCN1C(=O)[C@H](CCCNC(=N)N)NC(=O)[C@H](CO[C@H]1O[C@@H](C)[C@@H](O)[C@@H](O)[C@@H]1O)NC(=O)[C@@H](Cc1c[nH]c2ccccc12)NC(=O)[C@H](Cc1ccc(O)cc1)NC(=O)[C@H](CO)NC(=O)[C@H](Cc1c[nH]c2ccccc12)NC(=O)[C@H](Cc1c[nH]cn1)NC(=O)[C@@H]1CCC(=O)N1 [Pgl-His-Trp-Ser-Tyr-D-Trp-Ser(β-L-Fuc)-Arg-Pro-NH-C2 H5] | > 200 | 
50000 | Pgl-His-Trp-Ser-Tyr-D-Ser(Ac-α-L-Rha)-Leu-Arg-Pro-NH-C2 H5 | 3 | 
10000 | Pgl-His-Trp-Ser-Tyr-D-Ser(Ac-β-L-Fuc)-Leu-Arg-Pro-NH-C2 H5 | 6 | 
125000 | Pgl-His-Trp-Ser-Tyr-D-Ser(D-Ara)-Leu-Arg-Pro-NH-C2 H5 | < 24 | 
167000 | Pgl-His-Trp-Ser-Tyr-D-Ser(α-L-Rha)-Leu-Arg-Pro-NH-C2 H5 | 3 | 
125000 | Pgl-His-Trp-Ser-Tyr-D-Ser(β-D-Gal)-Leu-Arg-Pro-NH-C2 H5 | 12 | 
10000 | Pgl-His-Trp-Ser-Tyr-D-Ser(β-L-Xyl)-Leu-Arg-Pro-NH-C2 H5 | 6 | 
3300 | Pgl-His-Trp-Ser-Tyr-D-Trp-Ser(Ac2 -β-L-Fuc)-Arg-Pro-NH-C2 H5 | 200 | 
10000 | Pgl-His-Trp-Ser-Tyr-D-Trp-Ser(Ac-α-D-Man)-Arg-Pro-NH-C2 H5 | > 24 | 
500 | Pgl-His-Trp-Ser-Tyr-D-Trp-Ser(Ac-α-L-Rha)-Arg-Pro-NH-C2 H5 | > 24 | 
2500 | Pgl-His-Trp-Ser-Tyr-D-Trp-Ser(Ac-β-D-Glc)-Arg-Pro-NH-C2 H5 | 5 | 
2500 | Pgl-His-Trp-Ser-Tyr-D-Trp-Ser(Ac-β-D-Xyl)-Arg-Pro-NH-C2 H5 | 6 | 
5000 | Pgl-His-Trp-Ser-Tyr-D-Trp-Ser(D-Ara)-Arg-Pro-NH-C2 H5 | 24 | 
25000 | Pgl-His-Trp-Ser-Tyr-D-Trp-Ser(D-Rib)-Arg-Pro-NH-C2 H5 | < 24 | 
1250 | Pgl-His-Trp-Ser-Tyr-D-Trp-Ser(L-Ara)-Arg-Pro-NH-C2 H5 | 48 | 
1400 | Pgl-His-Trp-Ser-Tyr-D-Trp-Ser(α-L-Rha)-Arg-Pro-NH-C2 H5 | > 24 | 
125000 | Pgl-His-Trp-Ser-Tyr-D-Trp-Ser(β-D-Glc-NAc)-Arg-Pro-NH-C2 H5 | > 24 | 
1700 | Pgl-His-Trp-Ser-Tyr-D-Trp-Ser(β-D-Xyl)-Arg-Pro-NH-C2 H5 | 6 | 
1100 | Pgl-His-Trp-Ser-Tyr-D-Trp-Ser(β-L-Xyl)-Arg-Pro-NH-C2 H5 | 48 | 

Second part, the compound before the results:

Compound | Solubility in neutral nasal buffer [1] [µg/mL] | ED20-50 Super-ovul. (rat super-ovulation) [ng/rat] | Serum testosterone (Serum testosterone) [ng/mL]
CCNC(=O)[C@@H]1CCCN1C(=O)[C@H](CCCNC(=N)N)NC(=O)[C@H](CC(C)C)NC(=O)[C@@H](COC(C)(C)C)NC(=O)[C@H](Cc1ccc(O)cc1)NC(=O)[C@H](CO)NC(=O)[C@H](Cc1c[nH]c2ccccc12)NC(=O)[C@H](Cc1cnc[nH]1)NC(=O)[C@@H]1CCC(=O)N1 [Buserelin, Pgl--His--Trp--Ser--Tyr--D-Ser(tBu)--Leu--Arg--Pro--NH--C2 H5, reference compound] | 1250 (≈ 1010 µM) | 3 | 
CCNC(=O)[C@@H]1CCCN1C(=O)[C@H](CCCNC(=N)N)NC(=O)[C@H](CC(C)C)NC(=O)[C@@H](Cc1c[nH]c2ccccc12)NC(=O)[C@H](Cc1ccc(O)cc1)NC(=O)[C@H](CO)NC(=O)[C@H](Cc1c[nH]c2ccccc12)NC(=O)[C@H](Cc1c[nH]cn1)NC(=O)[C@@H]1CCC(=O)N1 [LH--RH--T, Pgl--His--Trp--Ser--Tyr--D-Trp--Leu--Arg--Pro--NH--C2 H5, reference compound] |  | 3 | 
CCNC(=O)[C@@H]1CCCN1C(=O)[C@H](CCCNC(=N)N)NC(=O)[C@H](CC(C)C)NC(=O)[C@@H](CO[C@H]1O[C@H](CO)[C@@H](O)[C@H](O)[C@@H]1O)NC(=O)[C@H](Cc1ccc(O)cc1)NC(=O)[C@H](CO)NC(=O)[C@H](Cc1c[nH]c2ccccc12)NC(=O)[C@H](Cc1c[nH]cn1)NC(=O)[C@@H]1CCC(=O)N1 [Pgl-His-Trp-Ser-Tyr-D-Ser(α-D-Man)-Leu-Arg-Pro-NH-C2 H5] | 62500 (≈ 46500 µM) | 6 | 
CCNC(=O)[C@@H]1CCCN1C(=O)[C@H](CCCNC(=N)N)NC(=O)[C@H](CC(C)C)NC(=O)[C@@H](CO[C@H]1O[C@@H](C)[C@@H](O)[C@@H](O)[C@@H]1O)NC(=O)[C@H](Cc1ccc(O)cc1)NC(=O)[C@H](CO)NC(=O)[C@H](Cc1c[nH]c2ccccc12)NC(=O)[C@H](Cc1c[nH]cn1)NC(=O)[C@@H]1CCC(=O)N1 [Pgl-His-Trp-Ser-Tyr-D-Ser(β-L-Fuc)-Leu-Arg-Pro-NH-C2 H5] | 167000 (≈ 126000 µM) | 6 | 
Ac-D-Nal-p-Cl-D-Phe-D-Trp-Ser-Arg-D-Ser(α-L-Rha)-Leu Arg-Pro-Azagly-NH2 |  |  | 2.27 ± 0.28
Ac-D-Nal-p-Cl-D-Phe-D-Trp-Ser-His-D-Ser(α-L-Rha)-Leu-Arg-Pro-Azagly-N H2 |  |  | 1.34 ± 0.17
Ac-D-Nal-p-Cl-D-Phe-D-Trp-Ser-Tyr-D-Ser(α-L-Rha)-Leu-Arg-Pro-Azagly-N H2 |  |  | 2.30 ± 0.47
Pgl--His--Trp--Ser--Tyr--D-Trp--Ser(β-D-Gal)--Arg--Pro--NH--C2 H5 | 10000 |  | 
Pgl-His-Trp-Ser-Tyr-D-Ser(D-Rib)-Leu-Arg-Pro-NH-C2 H5 | 10000 | < 6 | 
Pgl-His-Trp-Ser-Tyr-D-Ser(L-Ara)-Leu-Arg-Pro-NH-C2 H5 | 125000 | 12 | 
Pgl-His-Trp-Ser-Tyr-D-Ser(β-D-Glc-NAc)-Leu-Arg-Pro-NH-C2 H5 | 125000 | < 6 | 
Pgl-His-Trp-Ser-Tyr-D-Ser(β-D-Xyl)-Leu-Arg-Pro-NH-C2 H5 | 50000 | 6 | 
Pgl-His-Trp-Ser-Tyr-D-Ser(β-Lac)-Leu-Arg-Pro-NH-C2 H5 | 167000 | 12 | 
Pgl-His-Trp-Ser-Tyr-D-Trp-Ser(Ac2 -α-D-Man)-Arg-Pro-NH-C2 H5 | 10000 | > 24 | 
Pgl-His-Trp-Ser-Tyr-D-Trp-Ser(Ac-β-L-Fuc)-Arg-Pro-NH-C2 H5 | 10000 | 200 | 
Pgl-His-Trp-Ser-Tyr-D-Trp-Ser(β-Lac)-Arg-Pro-NH-C2 H5 | 167000 | < 48 | 
